According to PMC11435058, “Synthesis of New Thiazole-Privileged Chalcones as Tubulin Polymerization Inhibitors with Potential Anticancer Activities” (Pharmaceuticals, 2024):

Legend:
Details in all cases: Homo sapiens
MCF7 = assay: NCI-60 anticancer screen (SRB; single dose and five doses)
NCI/ADR-RES = assay: as above
SF-295 = assay: as above
DU-145 = assay: as above
IGROV1 = assay: as above
RPMI-8226 = assay: as above
LOX IMVI = assay: as above
OVCAR-8 = assay: as above
NCI-H23 = assay: as above
KM12 = assay: as above
HT29 = assay: as above
HOP-62 = assay: as above
CCRF-CEM = assay: NCI-60 anticancer screen (SRB; single dose 10 μM and five doses)
SF-539 = assay: NCI-60 anticancer screen (SRB; single dose and five doses)
OVCAR-4 = assay: as above
[1] = 48 h, read-out: Growth Percentage

Cc1[nH]c(=S)sc1C(=O)/C=C/c1ccc(F)cc1 [2c, (E)-3-(4-Fluorophenyl)-1-(4-Methyl-2-Thioxo-2,3-Dihydrothiazol-5-yl)Prop-2-En-1-One]
activity at 10 µM (MCF7; MCF7, 48 h, read-out: Growth Percentage): 9.48% | CC50 (MCF7; MCF7, read-out: LC50): 37 µM | IC (TGI) (MCF7; MCF7, read-out: TGI): 11.4 µM | GI50 (NCI/ADR-RES): 5.92 µM | activity at 10 µM (NCI/ADR-RES; [1]): -10.8% | CC50 (NCI/ADR-RES; read-out: LC50): 85 µM | IC (TGI) (NCI/ADR-RES; read-out: TGI): 24.9 µM | GI50 (SF-295; SF-295): 12.5 µM | activity at 10 µM (SF-295; SF-295, 48 h, read-out: Growth Percentage): 60.6% | CC50 (SF-295; SF-295, read-out: LC50): 52.9 µM | IC (TGI) (SF-295; SF-295, read-out: TGI): 25.7 µM | GI50 (DU-145; DU-145): 4.32 µM | activity at 10 µM (DU-145; DU-145, 48 h, read-out: Growth Percentage): 20.3% | CC50 (DU-145; DU-145, read-out: LC50): 39.9 µM | IC (TGI) (DU-145; DU-145, read-out: TGI): 15.7 µM | GI50 (IGROV1; IGROV-1): 4.93 µM | activity at 10 µM (IGROV1; IGROV-1, 48 h, read-out: Growth Percentage): 51.2% | CC50 (IGROV1; IGROV-1, read-out: LC50): 62.3 µM | IC (TGI) (IGROV1; IGROV-1, read-out: TGI): 19.7 µM | GI50 (RPMI-8226; RPMI-8226): 2.85 µM | activity at 10 µM (RPMI-8226; RPMI-8226, 48 h, read-out: Growth Percentage): 2.32% | CC50 (RPMI-8226; RPMI-8226, read-out: LC50): > 100 µM | IC (TGI) (RPMI-8226; RPMI-8226, read-out: TGI): > 100 µM | GI50 (LOX IMVI): 3.26 µM | activity at 10 µM (LOX IMVI; [1]): 8.91% | CC50 (LOX IMVI; read-out: LC50): 36.6 µM | IC (TGI) (LOX IMVI; read-out: TGI): 12.7 µM | GI50 (OVCAR-8; OVCAR-8): 3.99 µM | activity at 10 µM (OVCAR-8; OVCAR-8, 48 h, read-out: Growth Percentage): -13.6% | CC50 (OVCAR-8; OVCAR-8, read-out: LC50): 50.9 µM | IC (TGI) (OVCAR-8; OVCAR-8, read-out: TGI): 16.2 µM | GI50 (NCI-H23; NCI-H23): 10.6 µM | activity at 10 µM (NCI-H23; NCI-H23, 48 h, read-out: Growth Percentage): 62.7% | CC50 (NCI-H23; NCI-H23, read-out: LC50): 49.9 µM | IC (TGI) (NCI-H23; NCI-H23, read-out: TGI): 23 µM | GI50 (KM12; KM12): 4.28 µM | activity at 10 µM (KM12; KM12, 48 h, read-out: Growth Percentage): 6.85% | CC50 (KM12; KM12, read-out: LC50): 41 µM | IC (TGI) (KM12; KM12, read-out: TGI): 15.4 µM | GI50 (HT29; HT-29): 10.6 µM | activity at 10 µM (HT29; HT-29, 48 h, read-out: Growth Percentage): 73.3% | CC50 (HT29; HT-29, read-out: LC50): 52.4 µM | IC (TGI) (HT29; HT-29, read-out: TGI): 23.6 µM | GI50 (HOP-62; HOP-62): 3.83 µM | CC50 (HOP-62; HOP-62, read-out: LC50): 48.7 µM | IC (TGI) (HOP-62; HOP-62, read-out: TGI): 16.2 µM | GI50 (CCRF-CEM): 3.68 µM | activity at 10 µM (CCRF-CEM; [1]): -0.21% | IC (TGI) (CCRF-CEM; read-out: TGI): > 100 µM | GI50 (SF-539; SF-539): 2.94 µM | activity at 10 µM (SF-539; SF-539, 48 h, read-out: Growth Percentage): -4.61% | IC (TGI) (SF-539; SF-539, read-out: TGI): 10.8 µM | GI50 (OVCAR-4; OVCAR-4): 6.03 µM | activity at 10 µM (OVCAR-4; OVCAR-4, 48 h, read-out: Growth Percentage): 48.4% | CC50 (OVCAR-4; OVCAR-4, read-out: LC50): 44.7 µM | IC (TGI) (OVCAR-4; OVCAR-4, read-out: TGI): 19.6 µM
